The values below come from ChEMBL document CHEMBL1136297, “Synthesis and pharmacological evaluation of (Z)-9-(heteroarylmethylene)-7-azatricyclo[4.3.1.0(3,7)]decanes: thiophene analogues as potent norepinephrine transporter inhibitors” (Bioorg Med Chem Lett, 2003).

Assay [1] in a line: Inhibition of reuptake of norepinephrine compared to dopamine. Format: functional.
Assay [2] concerns the target Norepinephrine transporter (Rattus norvegicus, UniProt Q9WTR4). Briefly: Ability to inhibit reuptake of norepinephrine ([3H]NE) at norepinephrine transporter of rat parietal/occipital region.
The nature of assay [3]: Inhibition of reuptake of norepinephrine compared to serotonin. It is filed as functional.
The target of assay [4] is Sodium-dependent serotonin transporter (Rattus norvegicus, UniProt P31652). Briefly: Ability to inhibit reuptake of serotonin ([3H]5-HT) at serotonin transporter of rat midbrian.
For assay [5], the target named is Sodium-dependent dopamine transporter (Rattus norvegicus, UniProt P23977). Briefly: Ability to inhibit reuptake of dopamine ([3H]DA) at dopamine transporter of rat striatum. It is filed as tissue-based.
The nature of assay [6]: Inhibition of reuptake of serotonin compared to dopamine. It is filed as functional.
A short description of assay [7]: Ratio of inhibitory activity against reuptake of norepinephrine ([3H]-NE) to that of serotonin ([3H]-5-HT)[…]. It is filed as functional.

Sequence of Sodium-dependent dopamine transporter (P23977 whole entry): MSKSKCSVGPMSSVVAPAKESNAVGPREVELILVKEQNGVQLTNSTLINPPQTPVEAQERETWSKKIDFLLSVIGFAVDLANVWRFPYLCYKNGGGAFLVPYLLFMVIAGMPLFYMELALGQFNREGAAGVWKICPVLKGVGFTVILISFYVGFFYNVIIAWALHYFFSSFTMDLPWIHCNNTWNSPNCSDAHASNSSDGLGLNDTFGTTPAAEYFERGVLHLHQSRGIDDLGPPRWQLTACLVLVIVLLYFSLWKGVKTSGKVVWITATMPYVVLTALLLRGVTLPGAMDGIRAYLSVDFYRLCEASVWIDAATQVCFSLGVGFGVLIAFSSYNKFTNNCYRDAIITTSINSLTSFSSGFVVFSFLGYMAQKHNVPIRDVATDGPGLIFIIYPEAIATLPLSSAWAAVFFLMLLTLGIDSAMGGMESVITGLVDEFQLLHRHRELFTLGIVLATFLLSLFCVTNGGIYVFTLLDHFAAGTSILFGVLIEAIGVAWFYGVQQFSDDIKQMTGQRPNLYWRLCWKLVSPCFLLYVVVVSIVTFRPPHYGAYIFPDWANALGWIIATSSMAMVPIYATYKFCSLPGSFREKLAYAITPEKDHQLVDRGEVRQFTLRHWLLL
Sequence of Sodium-dependent serotonin transporter (P31652 whole entry): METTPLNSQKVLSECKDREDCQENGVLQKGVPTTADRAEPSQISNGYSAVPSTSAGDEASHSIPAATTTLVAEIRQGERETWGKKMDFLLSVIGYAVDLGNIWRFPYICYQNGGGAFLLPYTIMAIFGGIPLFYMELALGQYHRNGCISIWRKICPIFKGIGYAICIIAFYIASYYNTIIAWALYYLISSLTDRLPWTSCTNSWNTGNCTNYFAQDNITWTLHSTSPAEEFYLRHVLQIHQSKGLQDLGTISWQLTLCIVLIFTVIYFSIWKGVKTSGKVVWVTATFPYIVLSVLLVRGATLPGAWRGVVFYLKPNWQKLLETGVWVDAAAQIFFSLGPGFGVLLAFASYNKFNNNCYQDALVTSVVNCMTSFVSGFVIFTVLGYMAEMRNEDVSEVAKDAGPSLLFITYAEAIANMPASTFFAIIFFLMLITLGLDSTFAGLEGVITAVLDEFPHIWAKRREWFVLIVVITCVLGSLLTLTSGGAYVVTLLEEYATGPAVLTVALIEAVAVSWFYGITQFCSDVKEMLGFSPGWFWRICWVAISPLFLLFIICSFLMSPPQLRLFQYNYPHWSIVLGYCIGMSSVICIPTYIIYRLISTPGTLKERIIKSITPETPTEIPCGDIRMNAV
Sequence of Norepinephrine transporter (Q9WTR4 whole entry): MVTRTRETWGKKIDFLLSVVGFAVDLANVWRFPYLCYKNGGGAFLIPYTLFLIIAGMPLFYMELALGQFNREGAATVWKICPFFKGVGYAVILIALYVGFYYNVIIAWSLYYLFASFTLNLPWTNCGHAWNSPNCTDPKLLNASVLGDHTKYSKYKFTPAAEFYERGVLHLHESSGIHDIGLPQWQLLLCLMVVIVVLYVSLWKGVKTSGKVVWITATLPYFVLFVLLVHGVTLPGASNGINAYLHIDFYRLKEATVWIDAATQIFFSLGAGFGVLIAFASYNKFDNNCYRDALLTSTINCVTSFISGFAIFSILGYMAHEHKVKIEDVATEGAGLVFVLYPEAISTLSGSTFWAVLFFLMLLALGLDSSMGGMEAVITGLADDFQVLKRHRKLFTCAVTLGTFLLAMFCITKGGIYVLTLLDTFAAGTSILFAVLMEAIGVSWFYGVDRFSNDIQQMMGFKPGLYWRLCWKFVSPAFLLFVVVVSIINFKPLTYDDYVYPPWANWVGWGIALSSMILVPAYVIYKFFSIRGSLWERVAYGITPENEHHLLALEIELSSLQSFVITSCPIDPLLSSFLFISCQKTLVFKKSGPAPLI

For orientation: Ki means the equilibrium dissociation constant of an inhibitor or competing ligand from its target. Higher therefore signals weaker binding. Regarding `COC(=O)C1C2CC3CCC1N3C/C2=C\c1ccc(-c2ccc(SC)cc2)s1` (stereo unspecified), the Ratio in assay [1] amounted to 0.16; in assay [3], 0.08; in assay [6], 2.01. Besides, the values for the Ki in assay [2], in assay [4] and in assay [5] were 273 nM, 3320 nM and 1650 nM, respectively.

For the compound `COC(=O)C1C2CC3CCC1N3C/C2=C\c1ccc(C)s1` (stereo unspecified), the Ratio in assay [1] was determined as 0.01; in assay [3], 0.03; in assay [6], 0.44.

On to `COC(=O)C1C2CC3CCC1N3C/C2=C\c1ccc(Br)s1` (stereo unspecified), for which the results for the Ratio in assay [1], in assay [3] and in assay [6] were 0.14, 0.57 and 0.24, respectively. Further, the results for the Ki in assay [2], in assay [4] and in assay [5] were 20 nM, 36 nM and 147 nM, respectively.

In the case of `COC(=O)C1C2CC3CCC1N3C/C2=C\c1cnccn1` (stereo unspecified), the Ratio in assay [1] is 0.29; in assay [3], 0.27; in assay [6], 1.09. Further, the figures for the Ki in assay [2], in assay [4] and in assay [5] were 1930 nM, 7140 nM and 6570 nM, respectively.

As for `COC(=O)C1C2CC3CCC1N3C/C2=C\c1ccc(I)s1` (stereo unspecified), the Ratio came to 0.01 in assay [1], 0.17 in assay [3] and 0.08 in assay [6].

For `COC(=O)C1C2CC3CCC1N3C/C2=C\c1ccc(Cl)nc1` (stereo unspecified), the Ki in assay [2] was 6510 nM; in assay [4] it was 810 nM; in assay [5], > 10000 nM. For the same compound, the Ratio in assay [7] was found to be 8.03.

Take `COC(=O)C1C2CC3CCC1N3C/C2=C\c1cnc(OC)nc1OC` (stereo unspecified): the Ki in assay [2] is 9450 nM; in assay [4], 5140 nM; in assay [5] it was > 10000 nM. Further, the Ratio in assay [7] came out at 1.84.

With `COC(=O)C1C2CC3CCC1N3C/C2=C\c1cccs1` (stereo unspecified), the values for the Ratio in assay [1], in assay [3] and in assay [6] were 0.1, 0.01 and 7.63, respectively.

With `COC(=O)C1C2CC3CCC1N3C/C2=C\c1ccc(-c2cccs2)s1` (stereo unspecified), the Ratio in assay [1] came out at 0.33; in assay [3] it was 2.04; in assay [6], 0.16. Besides, the Ki in assay [2] came out at 98 nM; in assay [4] it was 48 nM; in assay [5] it was 298 nM.

In the case of `COC(=O)C1C2CC3CCC1N3C/C2=C\c1ccc(-c2ccccc2)s1` (stereo unspecified), the Ratio was 0.08 in assay [1], 0.19 in assay [3] and 0.4 in assay [6]. Besides, the Ki in assay [2] was 13.5 nM; in assay [4] it was 71 nM; in assay [5] it was 179 nM.

As to `CCc1ccc(/C=C2\CN3C4CCC3C(C(=O)OC)C2C4)s1` (stereo unspecified), the values for the Ki in assay [2], in assay [4] and in assay [5] were 2130 nM, 346 nM and > 10000 nM, respectively. In addition, in assay [7], the Ratio was found to be 6.16.

Regarding `COC(=O)C1C2CC3CCC1N3C/C2=C\c1ccsc1` (stereo unspecified), the Ratio in assay [1] worked out at 0.07; in assay [3], 0.01; in assay [6], 6.47. The Ki in assay [2] amounted to 33 nM; in assay [4] it was 3140 nM; in assay [5], 485 nM.

On to `CCCCc1ccc(/C=C2\CN3C4CCC3C(C(=O)OC)C2C4)s1` (stereo unspecified), for which the values for the Ratio in assay [1], in assay [3] and in assay [6] were 0.08, 0.55 and 0.14, respectively. In addition, the Ki in assay [2] is 364 nM; in assay [4], 665 nM; in assay [5], 4700 nM.

With `COC(=O)C1C2CC3CCC1N3C/C2=C\c1cccnc1` (stereo unspecified), the values for the Ki in assay [2], in assay [4] and in assay [5] were 12700 nM, 4580 nM and > 10000 nM, respectively. Moreover, in assay [7], the Ratio is 2.77.

With `COC(=O)C1C2CC3CCC1N3C/C2=C\c1ccc(-c2ccc(Cl)s2)s1` (stereo unspecified), the Ratio in assay [1] came out at 0.24; in assay [3], 0.62; in assay [6], 0.38. Further, the Ki in assay [2] amounted to 58 nM; in assay [4] it was 93 nM; in assay [5], 242 nM.

Regarding `COC(=O)C1C2CC3CCC1N3C/C2=C\c1ccc(Cl)s1` (stereo unspecified), the values for the Ratio in assay [1], in assay [3] and in assay [6] were 0.07, 0.18 and 0.41, respectively. Further, the Ki in assay [2] worked out at 9.7 nM; in assay [4], 53 nM; in assay [5] it was 130 nM.

On to `CCCc1ccc(/C=C2\CN3C4CCC3C(C(=O)OC)C2C4)s1` (stereo unspecified), for which the Ratio came out at 0.39 in assay [1], 2.32 in assay [3] and 0.17 in assay [6]. The Ki amounted to 624 nM in assay [2], 269 nM in assay [4] and 1600 nM in assay [5].

In the case of `COC(=O)C1C2CC3CCC1N3C/C2=C\c1cc(C)c(Br)s1` (stereo unspecified), the Ratio in assay [1] is 0.03; in assay [3], 5.45; in assay [6] it was 0.01. In addition, the Ki in assay [2] came out at 36.8 nM; in assay [4] it was 6.75 nM; in assay [5], 1280 nM.

Take `COC(=O)C1C2CC3CCC1N3C/C2=C\c1ccc(OC)s1` (stereo unspecified): the Ki in assay [2] was 2250 nM; in assay [4], 544 nM; in assay [5], > 10000 nM. In assay [7], the Ratio is 4.12.

In the case of `COC(=O)C1C2CC3CCC1N3C/C2=C\c1nccs1` (stereo unspecified), the Ki was 855 nM in assay [2], > 10000 nM in assay [4] and 5090 nM in assay [5]. The Ratio in assay [7] is 0.17.

Consider `COC(=O)C1C2CC3CCC1N3C/C2=C\c1ccccn1` (stereo unspecified), for which the Ratio was found to be 0.11 in assay [1], 0.04 in assay [3] and 2.97 in assay [6]. The Ki in assay [2] was 115 nM; in assay [4], 3150 nM.

Turning to `COC(=O)C1C2CC3CCC1N3C/C2=C\c1ccc(-c2ccc(OC)cc2)s1` (stereo unspecified), the Ratio turned out to be 0.03 in assay [1], 0.02 in assay [3] and 1.43 in assay [6]. Besides, the Ki is 10.3 nM in assay [2], 531 nM in assay [4] and 371 nM in assay [5].

For `COC(=O)C1C2CC3CCC1N3C/C2=C\c1cccc(OC)n1` (stereo unspecified), the Ratio amounted to 0.02 in assay [1], 0.65 in assay [3] and 0.03 in assay [6]. Moreover, the Ki was determined as 308 nM in assay [2], 477 nM in assay [4] and 14000 nM in assay [5].
